Test results reported in ChEMBL document CHEMBL1141580, “Studies on the chemical constituents and anticancer activity of Saxifraga stolonifera (L) Meeb” (2008).
Activity calls are given as the source filed them. The calls are words filed in the database; no cut-off is given here.

Legend:
BGC-823 [1] = experiment: Growth inhibition of human BGC823 cells at 50 uM after 72 hrs by MTT assay relative to control; assay type: functional; details: BGC-823, 72 h, read-out: GI
BGC-823 [2] = experiment: Growth inhibition of human BGC823 cells at 10 uM after 72 hrs by MTT assay relative to control; assay type: functional; details: BGC-823, 72 h, read-out: GI
BGC-823 [3] = experiment: Growth inhibition of human BGC823 cells at 100 uM after 72 hrs by MTT assay relative to control; assay type: functional; details: BGC-823, 72 h, read-out: GI
BGC-823 [4] = experiment: Growth inhibition of human BGC823 cells at 5 uM after 72 hrs by MTT assay relative to control; assay type: functional; details: BGC-823, 72 h, read-out: GI
BGC-823 [5] = experiment: Induction of apoptosis in human BGC823 cells at 20 uM after 12 hrs by flow cytometry; assay type: functional
BGC-823 [6] = experiment: Induction of apoptosis in human BGC823 cells at 20 uM after 36 hrs by flow cytometry; assay type: functional
BGC-823 [7] = experiment: Induction of apoptosis in human BGC823 cells at 20 uM after 48 hrs by flow cytometry; assay type: functional
BGC-823 [8] = experiment: Induction of apoptosis in human BGC823 cells at 20 uM after 24 hrs by flow cytometry; assay type: functional
BGC-823 [9] = experiment: Induction of apoptosis in human BGC823 cells at 100 uM after 24 hrs by flow cytometry; assay type: functional
BGC-823 [10] = experiment: Induction of apoptosis in human BGC823 cells at 100 uM after 12 hrs by flow cytometry; assay type: functional
BGC-823 [11] = experiment: Induction of apoptosis in human BGC823 cells at 100 uM after 36 hrs by flow cytometry; assay type: functional
BGC-823 [12] = experiment: Effect on cell morphology in human BGC823 cells assessed as chromosomal condensations at 50 uM; assay type: functional, cell-based
BGC-823 [13] = experiment: Induction of apoptosis in human BGC823 cells at 100 uM after 48 hrs by flow cytometry; assay type: functional
BGC-823 [14] = experiment: Induction of apoptotic bodies in human BGC823 cells at 50 uM after 48 hrs; assay type: functional, cell-based
BGC-823 [15] = experiment: Induction of apoptosis in human BGC823 cells assessed as increase in DNA fragmentation at 100 uM after 48 hrs; assay type: functional, cell-based
BGC-823 [16] = experiment: Induction of apoptosis in human BGC823 cells assessed as increase in DNA fragmentation at 50 uM after 48 hrs; assay type: functional, cell-based

Row | SMILES | inhibition of growth at 50 µM (BGC-823 [1]) [%] | inhibition of growth at 10 µM (BGC-823 [2]) [%] | inhibition of growth at 100 µM (BGC-823 [3]) [%] | inhibition of growth at 5 µM (BGC-823 [4]) [%] | further results
1 | O=c1c(O[C@@H]2O[C@H](CO)C(O)[C@H](O)[C@H]2O)c(-c2ccc(O)c(O)c2)oc2cc(O)cc(O)c12 (single isomer, unassigned) [ISOQUERCETIN] | 9.2 | 8.4 | 12.1 | 1.5 | 
2 | C[C@@H]1O[C@@H](Oc2c(-c3ccc(O)c(O)c3)oc3cc(O)cc(O)c3c2=O)C(O)[C@H](O)C1O (single isomer, unassigned) [QUERCITRIN] | 5.2 | 3.8 | 10.6 | 0.2 | 
3 | COc1c(O)cc2c(c1O)[C@@H]1O[C@H](CO)[C@@H](O)[C@H](O)[C@H]1OC2=O [BERGENIN] | 6.1 | 2.2 | 10.8 | -0.8 | 
4 | CC[C@H](CC[C@@H](C)[C@H]1CC[C@H]2[C@@H]3CC=C4C[C@@H](O)CC[C@]4(C)[C@H]3CC[C@]12C)C(C)C [BETA-SITOSTEROL] | 15.6 | 8.8 | 20.4 | 0.4 | 
5 | O=C(O)c1cc(O)c(O)c(O)c1 [GALLIC ACID] | 16.7 | 10.2 | 22.5 | 6.7 | 
6 | CCCCCCCCCCCCCCCCCCCCCCCCCCCCCCC [HENTRIACONTANE] | 7 | 3.9 | 10.1 | 4.5 | 
7 | CC[C@@]1(O)C(=O)OCc2c1cc1n(c2=O)Cc2cc3cc(O)ccc3nc2-1 [HYDROXYCAMPTOTHECIN] |  |  |  |  | Activity (BGC-823 [5]): 3.72%; Activity (BGC-823 [6]): 13.2%; Activity (BGC-823 [7]): 6.47%; Activity (BGC-823 [8]): 4.78%
8 | CCCCCCCCCCCCCCCCCCCCCCCCCCCCC [NONACOSANE] | -5.6 | -5.2 | -6.6 | -0.9 | 
9 | O=c1c(O)c(-c2ccc(O)c(O)c2)oc2cc(O)cc(O)c12 [QUERCETIN] | 22.4 | 11 | 39.3 | 7.5 | Activity (BGC-823 [9]): 11.82%; Activity (BGC-823 [10]): 5.02%; Activity (BGC-823 [11]): 10.19%; Activity (BGC-823 [12]): Active; Activity (BGC-823 [13]): 10.23%; Activity (BGC-823 [14]): Active; Activity (BGC-823 [15]): Active; Activity (BGC-823 [16]): Active
